Reference: PubChem BioAssay (NCI)
Values joined by “and” are separate entries in the source; they are usually repeats but may differ in a detail not shown here. Equal values may be shown once.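 The compound was tested at five concentrations on cells cultured in 96-well plates, with a 48-hour exposure period. GI50: concentration for 50% inhibition of growth. TGI: total growth inhibition.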

What was measured:
Test in all cases: NCI anticancer screen, dose series, 48 h
A549 NSCLC = tested on: A549 NSCLC
RPMI-8226 leukemia = tested on: RPMI-8226 leukemia
OVCAR-3 ovarian = tested on: OVCAR-3 ovarian
HCC-2998 colon = tested on: HCC-2998 colon
HCT-15 colon = tested on: HCT-15 colon
SW-620 colon = tested on: SW-620 colon
SK-OV-3 ovarian = tested on: SK-OV-3 ovarian
SK-MEL-5 melanoma = tested on: SK-MEL-5 melanoma
CAKI-1 renal = tested on: CAKI-1 renal
DU-145 prostate = tested on: DU-145 prostate
786-0 renal = tested on: 786-0 renal

| Structure (SMILES) | TGI (A549 NSCLC) [µM] | TGI (RPMI-8226 leukemia) [µM] | TGI (OVCAR-3 ovarian) [µM] | TGI (HCC-2998 colon) [µM] | TGI (HCT-15 colon) [µM] | TGI (SW-620 colon) [µM] | TGI (SK-OV-3 ovarian) [µM] | TGI (SK-MEL-5 melanoma) | TGI (CAKI-1 renal) [µM] | TGI (DU-145 prostate) [µM] | TGI (786-0 renal) [µM] | GI50 (A549 NSCLC) [µM] | GI50 (RPMI-8226 leukemia) [µM] | GI50 (HCC-2998 colon) [µM] | GI50 (HCT-15 colon) | GI50 (SW-620 colon) [µM] | GI50 (SK-MEL-5 melanoma) [µM] | GI50 (CAKI-1 renal) [µM] |
| --- | --- | --- | --- | --- | --- | --- | --- | --- | --- | --- | --- | --- | --- | --- | --- | --- | --- | --- |
| CC1=C2C(O)C(C(C)C(=O)NC(C)C)CCC2(C)C=CC1=O (stereo not given) | > 100 | > 100 | > 100 | > 100 | > 100 | > 100 | > 100 | > 100 µM | > 100 | – | – | – | – | – | – | – | – | – |
| CC(=O)OC1COC(Nn2c(=O)[nH]c3ccccc3c2=O)C(OC(C)=O)C1OC(C)=O (stereo not given) | > 100 | > 100 | > 100 | – | > 100 | > 100 | > 100 | > 100 µM | > 100 | > 100 | > 100 | – | – | – | – | – | – | – |
| CN(C(=O)c1cccs1)C(=S)N1CCN(c2ccccc2)CC1 | > 100 | > 100 | > 100 | > 100 | > 100 | > 100 | – | > 100 µM | – | > 100 | > 100 | – | – | – | – | – | – | – |
| O=C(Nc1c(Cl)cc([N+](=O)[O-])cc1Cl)/C(=N\Nc1cccc(Cl)c1)c1c(O)c2ccccc2oc1=O | > 100 | > 100 | > 100 | > 100 | – | > 100 | > 100 | > 100 µM | – | – | > 100 | – | – | – | – | – | – | – |
| COc1cc([C@@H]2c3cc4c(c(O)c3C[C@H]3COC(=O)[C@@H]32)OCO4)cc(OC)c1O | > 200 | 49.1 | – | 2 | > 9.28 | > 200 | – | 0.00624 µM and < 0.02 µM | < 0.02 | – | – | 0.00385 | 0.0041 | 0.0283 | 0.00348 µM and 0.0265 µM | 0.00397 | 0.00221 | 0.00611 |
| NC(CCCCNC(=O)C(Cc1ccccc1)NC(=O)OCc1ccccc1)C(=O)NC(CCCCNC(=O)C(Cc1ccccc1)NC(=O)OCc1ccccc1)C(=O)NC(CCCCNC(=O)C(Cc1ccccc1)NC(=O)OCc1ccccc1)C(=O)NC(CCCCNC(=O)C(Cc1ccccc1)NC(=O)OCc1ccccc1)C(=O)NC(CCCCNC(=O)C(Cc1ccccc1)NC(=O)OCc1ccccc1)C(=O)NC(CCCCNC(=O)C(Cc1ccccc1)NC(=O)OCc1ccccc1)C(=O)O (stereo not given) | > 100 | > 100 | > 100 | > 100 | > 100 | > 100 | – | > 100 µM | > 100 | > 100 | > 100 | – | – | – | – | – | – | – |
| CC(=O)Nc1ccc(-c2nc3ccccc3s2)cc1O | > 100 | > 100 | > 100 | > 100 | > 100 | > 100 | – | 62.8 µM | > 100 | > 100 | > 100 | – | – | – | – | – | – | – |
| COc1cc(C=O)c(-c2cc3c(cc2C=O)OCO3)c(OC)c1OC | > 290 | > 290 | 153 | > 290 | 279 | > 290 | > 290 | > 290 µM | > 290 | – | > 290 | – | – | – | – | – | – | – |
| Cc1cc(NCCCCCCNc2cc(C)nc3ccc(Cl)cc23)c2cc(Cl)ccc2n1 | 45.9 | > 100 | 32 | 30.3 | 33.1 | – | > 100 | 32.8 µM | > 100 | – | 32 | – | – | – | – | – | – | – |
| C/C(=N\Nc1nc2ccccc2o1)c1ccncn1 | > 32.7 | – | – | 29 | > 58.1 | > 39.3 | 17.4 | > 81.6 µM | 42.6 | – | 18.3 | – | – | – | – | – | – | – |
| S=C(Nc1ccccc1)N1N=C2c3ccccc3CC[C@H]2[C@@H]1c1ccccc1 | > 100 | > 100 | > 100 | > 100 | > 100 | > 100 | > 100 | – | – | – | > 100 | – | – | – | – | – | – | – |
| CCCCP(CCCC)(CCCC)=C(C(=O)OC)C(C(=O)OC)=C1SC(C(=O)OC)=C(C(=O)OC)S1 | 40.1 | > 100 | 53.1 | – | 96 | 87 | 75.8 | 29.7 µM | – | > 100 | 40 | – | – | – | – | – | – | – |
| N#CC(c1cc(Cl)ncn1)c1nc2ccccc2s1 (stereo not given) | > 100 | > 100 | 22.8 | – | 15.6 | 22 | 28.8 | 33.1 µM | 82.1 | 24.2 | 29.5 | – | – | – | – | – | – | – |
| N#Cc1c2nc3ccccc3nc2n2ccc3ccccc3c12 | > 100 | > 100 | > 100 | > 100 | > 100 | – | > 100 | > 100 µM | – | – | > 100 | – | – | – | – | – | – | – |
| CC(=O)NC(CCCCNC(=O)N(C)N=O)C(=O)NCc1ccccc1 (stereo not given) | > 100 | > 100 | > 100 | > 100 | > 100 | > 100 | > 100 | > 100 µM | > 100 | – | > 100 | – | – | – | – | – | – | – |
| Cc1cc(-c2ccccc2)cc2[n+]1CC=C2 | > 100 | – | – | > 100 | – | > 100 | – | – | > 100 | – | > 100 | – | – | – | – | – | – | – |
| C[C@@H]1OC(=O)/C(=C\N(C)C)[C@H]2CC(=O)N(CCc3cn(S(=O)(=O)C(F)(F)F)c4ccccc34)C[C@H]12 | > 100 | > 100 | > 100 | > 100 | > 100 | > 100 | > 100 | > 100 µM | > 100 | – | > 100 | – | – | – | – | – | – | – |
| CCCCOC(=O)C1CN2C(=NC1(C(F)(F)F)C(F)(F)F)Sc1ccccc12 (stereo not given) | > 100 | > 100 | > 100 | – | > 100 | > 100 | > 100 | 54.2 µM | > 100 | > 100 | > 100 | – | – | – | – | – | – | – |
| COc1ccc(-c2nnc(CCCCCCCCc3nnc(-c4ccc(OC)cc4)o3)o2)cc1 | > 100 | – | > 100 | > 100 | > 100 | > 100 | > 100 | > 100 µM | > 100 | > 100 | > 100 | – | – | – | – | – | – | – |
| COc1ccc([C@@H]2CC(=O)NCCCCNCCCN2)cc1 | > 100 | > 100 | – | – | > 100 | > 100 | > 100 | > 100 µM | > 100 | – | > 100 | – | – | – | – | – | – | – |
| Cc1nc2c(ncn2CCO)c(=O)[nH]1 | > 100 | – | > 100 | > 100 | > 100 | > 100 | > 100 | > 100 µM | > 100 | > 100 | > 100 | – | – | – | – | – | – | – |
